Legend:
barnyardgrass = assay: Test A preemergence; assay type: in vivo, Echinochloa crus-galli
Procedure, shortened: (§1)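 Greenhouse pot test, loam/sand soil. Formulation: non-phytotoxic solvent mix plus surfactant. Pre: directed spray onto soil after sowing. Post: plants at 1–2 leaf, 2–10 cm. Rated visually vs untreated controls at ~10 d, 0 (no effect) to 100 (complete control).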

large (Lg) crabgrass = assay: Test A preemergence; assay type: in vivo, Digitaria sanguinalis; conditions: Digitaria sanguinalis, pre-emergence, 240 h, read-out: Crabgrass, Large plant response rating
Procedure, shortened: as §1

wheat = assay: Test A preemergence; assay type: in vivo, Triticum aestivum; conditions: Triticum aestivum, pre-emergence, 240 h, read-out: Wheat plant response rating
Procedure, shortened: as §1

giant foxtail = assay: Test A postemergence; assay type: in vivo, Setaria faberii
Procedure, shortened: as §1

morningglory [1] = assay: Test A postemergence; assay type: in vivo, Ipomoea spp.; conditions: Ipomoea, post-emergence, 240 h
Procedure, shortened: as §1

corn [2] = assay: Test A postemergence; assay type: in vivo, Zea mays
Procedure, shortened: as §1

Heteranthera limosa = assay: Test B flooded paddy test; assay type: in vivo; conditions: Flood, 250 g ai/ha, 0 to 100 scale where 0 is no effect and 100 is complete control
Procedure, shortened: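 2-leaf stage plants; pots flooded to 3 cm, compound added to paddy water, depth maintained. Greenhouse 13–15 d. Visual rating vs untreated controls, 0 (no effect) to 100 (complete control); dash = no result.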

corn [3] = assay: Test C postemergence; assay type: in vivo, Zea mays; conditions: for Plant response rating, Corn: scale 0 to 100 (0 no effect, 100 complete control)
Text: (§2) Seeds of plant species selected from blackgrass (Alopecurus myosuroides), Italian ryegrass (Lolium multiflorum), wheat, winter (winter wheat, Triticum aestivum), galium (catchweed bedstraw, Galium aparine), corn (Zea mays), large (Lg) crabgrass (Digitaria sanguinalis), giant foxtail (Setaria faberii), johnsongrass (Sorghum halepense), lambsquarters (Chenopodium album), morningglory (Ipomoea coccinea), yellow nutsedge (Cyperus esculentus), pigweed (Amaranthus retroflexus), ragweed (common ragweed, Ambrosia elatior), soybean (Glycine max), barnyardgrass (Echinochloa crus-galli), oilseed rape (Brassica napus), waterhemp (common waterhemp, Amaranthus rudis), kochia (Kochia scoparia), wild oat (Avena fatua), surinam grass (Brachiaria decumbens), foxtail, green (green foxtail, Setaria viridis), goosegrass (Eleusine indica), bromegrass, downy (downy bromegrass, Bromus tectorum), nightshade (eastern black nightshade, Solanum ptycanthum), cocklebur (common cocklebur, Xanthium strumarium), cupgrass, woolly (woolly cupgrass, Eriochloa villosa), bermudagrass (Cynodon dactylon), sunflower, (common oilseed sunflower, Helianthus annuus), Russian thistle (Salsola kali), and velvetleaf (Abutilon theophrasti) were planted into a blend of loam soil and sand and treated preemergence with test chemicals formulated in a non-phytotoxic solvent mixture which included a surfactant.
(§3) At the same time, plants selected from these crop and weed species and also barley, winter (winter barley, Hordeum vulgare), windgrass (Apera spica-venti), chickweed (common chickweed, Stellaria media), deadnettle (henbit deadnettle, Lamium amplexicaule), and canarygrass (littleseed canarygrass, Phalaris minor) were planted in pots containing Redi-Earth® planting medium (Scotts Company, 14111 Scottslawn Road, Marysville, Ohio 43041) comprising spaghnum peat moss, vermiculite, wetting agent and starter nutrients and treated with postemergence applications of test chemicals formulated in the same manner. Plants ranged in height from 2 to 18 cm (1- to 4-leaf stage) for postemergence treatments. Treated plants and controls were maintained in a greenhouse for 13 to 15 days, after which time all species were compared to controls and visually evaluated. Plant response ratings, summarized in Table C, are based on a scale of 0 to 100 where 0 is no effect and 100 is complete control. A dash (-) response means no test result.

morningglory [4] = assay: Test C postemergence; assay type: in vivo, Ipomoea coccinea; conditions: for Plant response rating, Morningglory: scale 0 to 100 (0 no effect, 100 complete control)
Text: as §2, §3

pigweed = assay: Test C postemergence; assay type: in vivo, Amaranthus retroflexus; conditions: for Plant response rating, Pigweed: scale 0 to 100 (0 no effect, 100 complete control)
Text: as §2, §3

kochia = assay: Test C postemergence; assay type: in vivo, Kochia scoparia; conditions: for Plant response rating, Kochia: scale 0 to 100 (0 no effect, 100 complete control)
Text: as §2, §3

wild oat = assay: Test C postemergence; assay type: in vivo, Avena fatua; conditions: for Plant response rating, Oat, Wild: scale 0 to 100 (0 no effect, 100 complete control)
Text: as §2, §3

[5] = 125 g ai/ha, 0 to 100 scale where 0 is no effect and 100 is complete control
[6] = 500 g ai/ha, 0 to 100 scale, 0 no effect, 100 complete control, approx. 10 days
[7] = 31 g ai/ha, 0 to 100 scale, 0 no effect, 100 complete control
[8] = 16 g ai/ha, postemergence, 0 is no effect, 100 is complete control
[9] = 125 g ai/ha, postemergence, visual rating

For `FC(F)(F)c1ccn(-c2ccccc2Oc2ncc(Cl)cn2)n1` [Compound 2, 5-chloro-2-[2-[3-(trifluoromethyl)-1H-pyrazol-1-yl]phenoxy]pyrimidine], which pest or weed control at 125 g/ha (barnyardgrass; Echinochloa crus-galli, pre-emergence, 240 h, 125 g ai/ha, 0 to 100 scale where 0 is no effect and 100 is complete control, read-out: Barnyardgrass plant response rating) is on record?
Its pest or weed control at 125 g/ha is 30%.

What about the pest or weed control at 500 g/ha (barnyardgrass; Echinochloa crus-galli, pre-emergence, 240 h, 500 g ai/ha, 0 to 100 scale, 0 no effect, 100 complete control, approx. 10 days, read-out: Barnyardgrass plant response rating) of the same molecule?
Its pest or weed control at 500 g/ha is 90%.

What about the pest or weed control at 125 g/ha (large (Lg) crabgrass; [5]) of the same molecule?
Its pest or weed control at 125 g/ha is 80%.

What about the pest or weed control at 500 g/ha (large (Lg) crabgrass; [6]) of the same molecule?
The pest or weed control at 500 g/ha was 100%.

And the plant injury at 125 g/ha (wheat; [5])?
Its plant injury at 125 g/ha is 0%.

And the plant injury at 500 g/ha (wheat; [6])?
Its plant injury at 500 g/ha is 0%.

And the pest or weed control at 125 g/ha (giant foxtail; Setaria faberi, post-emergence, 240 h, 125 g ai/ha, 0 to 100 scale where 0 is no effect and 100 is complete control, read-out: Plant response rating, Foxtail, Giant)?
Its pest or weed control at 125 g/ha is 10%.

What about the pest or weed control at 500 g/ha (giant foxtail; Setaria faberi, post-emergence, 240 h, 500 g ai/ha, 0 to 100 scale, 0 no effect, 100 complete control, read-out: Plant response rating Foxtail, Giant) of the same molecule?
Its pest or weed control at 500 g/ha is 80%.

What about the pest or weed control at 125 g/ha (morningglory [1]; 125 g ai/ha, 0 to 100 scale where 0 is no effect and 100 is complete control, read-out: Plant response rating, Morningglory) of the same molecule?
The pest or weed control at 125 g/ha was 30%.

What about the pest or weed control at 500 g/ha (morningglory [1]; 500 g ai/ha, 0 to 100 scale, 0 no effect, 100 complete control, read-out: Plant response rating Morningglory) of the same molecule?
The pest or weed control at 500 g/ha was 70%.

And the Corn plant response rating (crop injury, 0 = no effect, 100 = complete kill) at 125 g/ha (corn [2]; Zea mays, post-emergence, 240 h, 125 g ai/ha, 0 to 100 scale where 0 is no effect and 100 is complete control)?
Its Corn plant response rating (crop injury, 0 = no effect, 100 = complete kill) at 125 g/ha is 0%.

What about the plant injury at 500 g/ha (corn [2]; Zea mays, post-emergence, 240 h, 500 g ai/ha, 0 to 100 scale, 0 no effect, 100 complete control, read-out: Plant response rating Corn) of the same molecule?
Its plant injury at 500 g/ha is 40%.

What about the pest or weed control at 250 g/ha (Heteranthera limosa; Heteranthera limosa, read-out: Plant response rating, Ducksalad) of the same molecule?
Its pest or weed control at 250 g/ha is 45%.

Which results are given for `FCc1cccc(Oc2ncc(Br)cn2)c1-n1cc(C(F)(F)F)cn1` [Compound 120]?
Barnyardgrass plant response rating (0 to 100 scale) (barnyardgrass; 31 g ai/ha): 20; Plant response rating, Barnyardgrass (barnyardgrass; [5]): 70; Plant response rating, Foxtail, Giant (giant foxtail; [7]): 20; Plant response rating, Foxtail, Giant (giant foxtail; [5]): 70; Plant response rating, Corn (corn [2]; [7]): 10; Plant response rating, Corn (corn [2]; [5]): 50; Plant response rating, Ducksalad (Heteranthera limosa): 95; Plant response rating (0 to 100), Corn (corn [3]; [8]): 5; Plant response rating, Corn (corn [3]; [9]): 10; Plant response rating, Corn (corn [3]; Postemergence, 62 g ai/ha): 5; Plant response rating (0 to 100), Morningglory (morningglory [4]; [8]): 20; Plant response rating, Morningglory (morningglory [4]; [9]): 80; Plant response rating, Morningglory (morningglory [4]; Postemergence, 62 g ai/ha): 35; Plant response rating (0 to 100), Pigweed (pigweed; [8]): 40; Plant response rating, Pigweed (pigweed; [9]): 95; Plant response rating, Pigweed (pigweed; Postemergence, 62 g ai/ha): 85; Plant response rating (0 to 100), Kochia (kochia; [8]): 75; Plant response rating, Kochia (kochia; [9]): 100; Plant response rating, Kochia (kochia; Postemergence, 62 g ai/ha): 95; Plant response rating (0 to 100), Oat, Wild (wild oat; [8]): 0; Plant response rating, Oat, Wild (wild oat; [9]): 5; Plant response rating, Oat, Wild (wild oat; Postemergence, 62 g ai/ha): 5
